Reference: patent US20090137572A1, “2-substituted-4-heteroaryl-pyrimidines useful for the treatment of proliferative disorders” (priority 2004, published 2009)

What was measured:
Assay type in all cases: biochemical
CDK9/cyclin T1 = CDK9/cyclin T1 (Homo sapiens, UniProt P50750); assay: CDK 9 assay (CTD peptide substrate); settings: read-out: Kinase Inhibition pIC50 CDK9-cyclin T1 (converted)
Experimental: (§1) Kinase assays. The compounds of the invention above were investigated for their ability to inhibit the enzymatic activity of various protein kinases (Table 2). This was achieved by measurement of incorporation of radioactive phosphate from ATP into appropriate polypeptide substrates. Recombinant protein kinases and kinase complexes were produced or obtained commercially. Assays were performed using 96-well plates and appropriate assay buffers (typically 25 mM β-glycerophosphate, 20 mM MOPS, 5 mM EGTA, 1 mM DTT, 1 mM […], pH 7.4), into which were added 2-4 μg of active enzyme with appropriate substrates. The reactions were initiated by addition of Mg/ATP mix (15 mM MgCl2+100 μM ATP with 30-50 kBq per well of [γ-^32P]-ATP) and mixtures incubated as required at 30° C. Reactions were stopped on ice, followed by filtration through p81 filterplates or GF/C filterplates (Whatman Polyfiltronics, Kent, UK). After washing 3 times with 75 mM aq orthophosphoric acid, plates were dried, scintillant added and incorporated radioactivity measured in a scintillation counter (TopCount, Packard Instruments, Pangbourne, Berks, UK). Compounds for kinase assay were made up as 10 mM stocks in DMSO and diluted into 10% DMSO in assay buffer.
(§2) CDK 7 and 9 assays. CTD peptide substrate (biotinyl-Abx-(Tyr-Ser-Pro-Thr-Ser-Pro-Ser)4-NH2; 1-2 mg/mL) and recombinant human CDK7/cyclin H, CDK9/cyclin T1, or CDK9/cyclin K (0.5-2 μg) were incubated for 45 min at 30° C. in the presence of varying amounts of test compound in 20 mM MOPS pH 7.2, 25 mM β-glycerophosphate, 5 mM EGTA, 1 mM DTT, 1 mM sodium vanadate, 15 mM MgCl2, and 100 μM ATP (containing a trace amount of ^32PγATP) in a total volume of 25 μL in a 96-well microtiter plate. The reaction was stopped by placing the plate on ice for 2 min. Avidin (50 μg) was added to each well, and the plate was incubated at room temp for 30 min. The samples were transferred to a 96-well P81 filter plate, and washed (4×200 μL per well) with 75 mM phosphoric acid. Microscint 40 scintillation liquid (50 μL) was added to each well, and the amount of ^32P incorporation for each sample was measured using a Packard Topcount microplate scintillation counter.

CDK7/cyclin H = CDK7/cyclin H (Homo sapiens, UniProt P50613); assay: CDK 7 assay (CTD peptide substrate); settings: read-out: Kinase Inhibition pIC50 CDK7-cyclin H (converted)
Chain of CDK7/cyclin H (P50613 whole entry): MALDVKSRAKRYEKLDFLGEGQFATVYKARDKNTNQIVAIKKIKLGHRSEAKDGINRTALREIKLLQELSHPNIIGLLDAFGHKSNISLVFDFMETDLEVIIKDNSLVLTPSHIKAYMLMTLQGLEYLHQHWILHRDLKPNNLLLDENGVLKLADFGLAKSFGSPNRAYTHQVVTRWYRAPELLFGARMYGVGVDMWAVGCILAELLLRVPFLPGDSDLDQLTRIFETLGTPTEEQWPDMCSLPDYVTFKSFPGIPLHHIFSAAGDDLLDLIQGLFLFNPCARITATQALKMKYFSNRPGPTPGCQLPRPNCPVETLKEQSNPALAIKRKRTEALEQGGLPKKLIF
Chain of CDK7/cyclin H (P51946 whole entry partner): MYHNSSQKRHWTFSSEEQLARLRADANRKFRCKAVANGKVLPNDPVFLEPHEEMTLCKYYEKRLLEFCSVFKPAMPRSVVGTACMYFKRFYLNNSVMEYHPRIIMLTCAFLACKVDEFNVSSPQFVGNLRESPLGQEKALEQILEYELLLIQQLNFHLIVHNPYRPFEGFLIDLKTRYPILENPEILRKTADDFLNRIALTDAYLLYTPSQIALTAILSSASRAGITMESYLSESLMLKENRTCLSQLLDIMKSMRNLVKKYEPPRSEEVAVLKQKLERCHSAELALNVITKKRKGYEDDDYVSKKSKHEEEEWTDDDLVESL
Experimental: as §1, §2

Aurora A kinase = molecular target: T1, Aurora A kinase (Homo sapiens, UniProt O14965); assay: Aurora-A (human) kinase assay (Kemptide substrate); settings: pIC50 is -log(IC50, M); 15 μM ATP; read-out: Kinase Inhibition pIC50 Aurora A kinase (converted)
T1 construct: purchased
T1 sequence (O14965 1-403): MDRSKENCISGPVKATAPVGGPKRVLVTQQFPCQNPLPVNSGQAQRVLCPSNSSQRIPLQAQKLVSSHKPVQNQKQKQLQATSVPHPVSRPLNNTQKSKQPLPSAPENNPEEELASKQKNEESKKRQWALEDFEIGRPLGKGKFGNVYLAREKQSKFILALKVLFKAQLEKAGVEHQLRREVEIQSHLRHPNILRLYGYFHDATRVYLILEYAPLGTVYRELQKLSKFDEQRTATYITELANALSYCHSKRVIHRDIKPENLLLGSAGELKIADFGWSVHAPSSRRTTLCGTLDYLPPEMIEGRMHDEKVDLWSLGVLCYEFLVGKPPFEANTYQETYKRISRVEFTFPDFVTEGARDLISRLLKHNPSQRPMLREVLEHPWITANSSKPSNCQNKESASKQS
Experimental: Aurora-A (human) kinase assay. This was achieved by measurement of incorporation of radioactive phosphate from ATP into Kemptide substrate (LRRASLG), upon phosphorylation by commercially obtained aurora-A kinase. Assays were performed using 96-well plates and appropriate assay buffers (8 mM MOPS, 0.2 mM EDTA, pH 7.0), into which were added 5-10 ng of active enzyme with 200 μM substrate (Kemptide). The reactions were initiated by addition of Mg/ATP mix (10 mM MgAcetate+15 μM ATP with 30-50 kBq per well of [γ-^33P]-ATP) and mixtures incubated for 40 min at room temperature. Reactions were stopped by addition of 3% phosphoric acid, followed by filtration through p81 filterplates (Whatman Polyfiltronics, Kent, UK). After washing 5 times with 75 mM aq orthophosphoric acid and once in methanol, plates were dried, scintillant added and incorporated radioactivity measured in a scintillation counter (TopCount, Packard Instruments, Pangbourne, Berks, UK). Compounds for kinase assay were made up as 10 mM stocks in DMSO and diluted into 10% DMSO in assay buffer.

CDK2-cycline E = CDK2-cycline E (Homo sapiens, UniProt P24941); assay: Kinase assay (radioactive phosphate incorporation), CDK2-cyclin E; settings: read-out: Kinase Inhibition pIC50 CDK2-cycline E (converted)
Experimental: as §1

Chain of CDK9/cyclin T1 (P50750 whole entry): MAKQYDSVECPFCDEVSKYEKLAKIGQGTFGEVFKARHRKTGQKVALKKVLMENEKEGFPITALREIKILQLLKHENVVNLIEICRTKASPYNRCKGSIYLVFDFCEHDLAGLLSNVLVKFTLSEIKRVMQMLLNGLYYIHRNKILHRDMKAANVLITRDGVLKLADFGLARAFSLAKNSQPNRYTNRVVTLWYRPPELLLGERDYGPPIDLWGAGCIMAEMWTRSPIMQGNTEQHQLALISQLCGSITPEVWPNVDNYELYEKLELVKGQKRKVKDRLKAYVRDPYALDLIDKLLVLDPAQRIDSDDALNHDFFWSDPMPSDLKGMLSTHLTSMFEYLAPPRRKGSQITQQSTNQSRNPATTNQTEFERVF
Chain of CDK9/cyclin T1 (O60563 whole entry partner): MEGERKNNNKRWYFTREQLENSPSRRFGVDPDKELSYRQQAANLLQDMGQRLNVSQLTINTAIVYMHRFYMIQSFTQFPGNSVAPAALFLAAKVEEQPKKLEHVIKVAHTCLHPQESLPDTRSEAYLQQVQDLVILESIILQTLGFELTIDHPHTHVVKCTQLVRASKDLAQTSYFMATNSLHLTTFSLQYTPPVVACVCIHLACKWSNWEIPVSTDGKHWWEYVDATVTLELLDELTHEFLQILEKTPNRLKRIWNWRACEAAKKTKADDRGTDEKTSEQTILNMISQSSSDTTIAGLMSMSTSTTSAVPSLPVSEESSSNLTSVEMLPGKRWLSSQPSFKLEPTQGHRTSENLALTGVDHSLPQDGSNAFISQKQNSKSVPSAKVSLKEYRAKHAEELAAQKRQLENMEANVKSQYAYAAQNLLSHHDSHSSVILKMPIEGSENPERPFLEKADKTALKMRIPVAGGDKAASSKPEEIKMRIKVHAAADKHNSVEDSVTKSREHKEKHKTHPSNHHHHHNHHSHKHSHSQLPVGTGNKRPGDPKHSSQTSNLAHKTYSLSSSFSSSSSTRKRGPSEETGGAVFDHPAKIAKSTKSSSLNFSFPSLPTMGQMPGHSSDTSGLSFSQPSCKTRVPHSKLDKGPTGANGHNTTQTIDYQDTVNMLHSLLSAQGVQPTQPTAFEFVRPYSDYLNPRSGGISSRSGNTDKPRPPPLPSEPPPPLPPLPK

Row | SMILES | IC50 (CDK9/cyclin T1) | IC50 (CDK7/cyclin H) | IC50 (Aurora A kinase) | IC50 (CDK2-cycline E)
1 | CNc1nc(C)c(-c2ccnc(Nc3cccc(S(=O)(=O)Nc4cccc(OC)c4)c3)n2)s1 [Compound 32, N-(3-Methoxy-phenyl)-3-[4-(4-methyl-2-methylamino-thiazol-5-yl)-pyrimidin-2-ylamino]-benzenesulfonamide] | 2510 nM | 5010 nM | 12.6 nM | 
2 | CCNc1nc(C)c(-c2ccnc(Nc3cccc(Br)c3)n2)s1 [Compound 50, (3-Bromo-phenyl)-[4-(2-ethylamino-4-methyl-thiazol-5-yl)-pyrimidin-2-yl]-amine] | 200 nM |  | 20 nM | 
3 | CC(=O)N1CCN(c2ccc(Nc3nccc(-c4sc(N(C)Cc5ccccc5)nc4C)n3)cc2)CC1 [Compound 122, 1-[4-(4-{4-[2-(Benzyl-methyl-amino)-4-methyl-thiazol-5-yl]-pyrimidin-2-ylamino}-phenyl)-piperazin-1-yl]-ethanone] | 1260 nM | 1580 nM | 200 nM | 2000 nM
4 | COc1cc(Nc2nccc(-c3sc(C)nc3C)n2)ccc1N1CCOCC1 [Compound 173, [4-(2,4-Dimethyl-thiazol-5-yl)-pyrimidin-2-yl]-(3-methoxy-4-morpholin-4-yl-phenyl)-amine] | 3160 nM | 3160 nM | 39.8 nM | 794 nM
5 | COc1cc(Nc2nccc(-c3sc(N)nc3C)n2)ccc1N1CCOCC1 [Compound 182, [4-(2-Amino-4-methyl-thiazol-5-yl)-pyrimidin-2-yl]-(3-methoxy-4-morpholin-4-yl-phenyl)-amine] | 1000 nM | 2510 nM | 39.8 nM | 794 nM
6 | COc1ccc(Nc2nccc(-c3sc(N)nc3C)n2)cc1C [Compound 185, [4-(2-Amino-4-methyl-thiazol-5-yl)-pyrimidin-2-yl]-(4-methoxy-3-methyl-phenyl)-amine] |  |  | 39.8 nM | 251 nM
7 | CCNc1nc(C)c(-c2ccnc(Nc3ccc(OC)c(C)c3)n2)s1 [Compound 187, [4-(2-Ethylamino-4-methyl-thiazol-5-yl)-pyrimidin-2-yl]-(4-methoxy-3-methyl-phenyl)-amine] |  |  | 100 nM | 794 nM
8 | COc1cc(Nc2nccc(-c3sc(CO)nc3C)n2)ccc1N1CCOCC1 [Compound 200, {5-[2-(3-Methoxy-4-morpholin-4-yl-phenylamino)-pyrimidin-4-yl]-4-methyl-thiazol-2-yl}-methanol] |  |  | 39.8 nM | 2000 nM
9 | Cc1nc(N)sc1-c1ccnc(Nc2ccc(N3CCOCC3)c(C(N)=O)c2)n1 [Compound 211, 5-[4-(2-Amino-4-methyl-thiazol-5-yl)-pyrimidin-2-ylamino]-2-morpholin-4-yl-benzamide] | 2000 nM | 6310 nM | 158 nM | 2510 nM
10 | COc1ccc(Nc2nccc(-c3sc(C)nc3C)n2)cc1CN1CCOCC1 [Compound 215, [4-(2,4-Dimethyl-thiazol-5-yl)-pyrimidin-2-yl]-(4-methoxy-3-morpholin-4-ylmethyl-phenyl)-amine] |  |  | 200 nM | 1580 nM

Next, values leading:

Row | IC50 (CDK9/cyclin T1) | IC50 (CDK7/cyclin H) | IC50 (Aurora A kinase) | IC50 (CDK2-cycline E) | SMILES
11 | 1580 nM | 126 nM | 316 nM | 1260 nM | Cc1nc(C)c(-c2ccnc(Nc3ccc(N4CCN(Cc5ccccc5)CC4)cc3)n2)s1 [Compound 114, [4-(4-Benzyl-piperazin-1-yl)-phenyl]-[4-(2,4-dimethyl-thiazol-5-yl)-pyrimidin-2-yl]-amine]
12 | 2000 nM | 3160 nM | 31.6 nM | 794 nM | CCN(C)c1nc(C)c(-c2ccnc(Nc3ccc(N4CCOCC4)cc3)n2)s1 [Compound 120, {4-[2-(Ethyl-methyl-amino)-4-methyl-thiazol-5-yl]-pyrimidin-2-yl}-(4-morpholin-4-yl-phenyl)-amine]
13 | 3980 nM |  | 79.4 nM | 1580 nM | Cc1nc(CO)sc1-c1ccnc(Nc2ccc(N3CCOCC3)cc2)n1 [Compound 188, {4-Methyl-5-[2-(4-morpholin-4-yl-phenylamino)-pyrimidin-4-yl]-thiazol-2-yl}-methanol]
14 | 2000 nM |  | 100 nM | 2000 nM | CCOC(=O)N1CCN(c2ccc(Nc3nccc(-c4sc(C)nc4C)n3)cc2)CC1 [Compound 189, 4-{4-[4-(2,4-Dimethyl-thiazol-5-yl)-pyrimidin-2-ylamino]-phenyl}-piperazine-1-carboxylic acid ethyl ester]
15 | 2510 nM | 7940 nM | 63.1 nM | 1000 nM | Cc1nc(C)c(-c2ccnc(Nc3ccc(N4CCN(CC(=O)NC(C)C)CC4)cc3)n2)s1 [Compound 190, 2-(4-{4-[4-(2,4-Dimethyl-thiazol-5-yl)-pyrimidin-2-ylamino]-phenyl}-piperazin-1-yl)-N-isopropyl-acetamide]
16 | 3980 nM |  | 200 nM |  | Cc1nc(C)c(-c2ccnc(Nc3ccc(N4CCCCC4)cc3)n2)s1 [Compound 193, [4-(2,4-Dimethyl-thiazol-5-yl)-pyrimidin-2-yl]-(4-piperidin-1-yl-phenyl)-amine]
17 |  |  | 79.4 nM | 794 nM | CCNc1nc(C)c(-c2ccnc(Nc3ccc(N4CCCCC4)cc3)n2)s1 [Compound 194, [4-(2-Ethylamino-4-methyl-thiazol-5-yl)-pyrimidin-2-yl]-(4-piperidin-1-yl-phenyl)-amine]
18 | 398 nM | 1580 nM | 39.8 nM | 794 nM | Cc1nc(N)sc1-c1ccnc(Nc2ccc(N3CCCCC3)cc2)n1 [Compound 195, [4-(2-Amino-4-methyl-thiazol-5-yl)-pyrimidin-2-yl]-(4-piperidin-1-yl-phenyl)-amine]
19 |  |  | 200 nM | 631 nM | CCNc1nc(C)c(-c2ccnc(Nc3ccc(N4CCN(C)CC4)cc3)n2)s1 [Compound 196, [4-(2-Ethylamino-4-methyl-thiazol-5-yl)-pyrimidin-2-yl]-[4-(4-methyl-piperazin-1-yl)-phenyl]-amine]
20 | 3160 nM | 7940 nM | 100 nM | 2510 nM | Cc1nc(CO)sc1-c1ccnc(Nc2ccc(N3CCCCC3)cc2)n1 [Compound 197, {4-Methyl-5-[2-(4-piperidin-1-yl-phenylamino)-pyrimidin-4-yl]-thiazol-2-yl}-methanol]
21 | 1260 nM |  | 63.1 nM | 1000 nM | CCNc1nc(C)c(-c2ccnc(Nc3ccc(N4CCOCC4)c(C(N)=O)c3)n2)s1 [Compound 212, 5-[4-(2-Ethylamino-4-methyl-thiazol-5-yl)-pyrimidin-2-ylamino]-2-morpholin-4-yl-benzamide]
22 | 2510 nM |  | 39.8 nM | 1580 nM | Cc1nc(C)c(-c2ccnc(Nc3ccc(N4CCN(C(=O)C5CC5)CC4)cc3)n2)s1 [Compound 213, Cyclopropyl-(4-{4-[4-(2,4-dimethyl-thiazol-5-yl)-pyrimidin-2-ylamino]-phenyl}-piperazin-1-yl)-methanone]
